Reference: patent US20230255927A1 (ELANCO TIERGESUNDHEIT AG, priority 2022, published 2023)
Marks after values point to notes of the source that are not given here.

Test system: lactating dairy cattle
Assay: Combined analysis of Wisconsin and New York Studies
Type: in vivo
Parameters: DMI / NEL: unit not given here
Details: for Milk protein percentage: all treatments
Description: The instant example provides the combined analysis of data from the two studies (Wisconsin Study and New York Study). The two studies were combined statistically to explore effects on milk production efficiency and other variables associated with efficiency. By effectively doubling pen numbers an increase in power of the analysis was provided. Analysis of these combined datasets was performed in various ways, with the inclusion of either weekly milk yield averages or sample day milk yields to calculate milk component yields, component corrected yields, and feed efficiency. Further, the combined dataset was analyzed using data collected from all experimental weeks as well as the exclusion of data from the first three weeks of experimental treatment feeding. This was done to exclude any shifts in response variables while the rumen environment was adapting to the treatment provided. Materials & Methods: All data from both experimental locations were combined and statistically analyzed as a longitudinal experiment design through SAS version 9.4 (SAS Institute Inc., Cary, N.C.). Experimental response variables, excluding body condition score (BCS), were analyzed using PROC MIXED and […] statements to compare treatment means using the following model: γijklm=μ+[…] Where γijklm=an individual observation of the response variable analyzed, Ti=the i^th dietary treatment, Wj=the j^th experimental week, TWij=the interaction of the i^th treatment with the j^th experimental week, Lk=the k^th experimental location, Pl(i*k)=the 1th pen within the i^th treatment and k^th experimental location, WPjl(i*k)=the interaction of the j^th experimental week with the 1th pen within the i^th treatment and k^th experimental location, Cm(l*i*k)=the m^th cow within the 1th pen, the i^th treatment and k^th experimental location, BXmlik=the covariate observation obtained after three weeks of feeding a common diet to all treatment groups, and ∈ijklmn=the random error of the m^th cow within the 1th pen, the i^th treatment and the k^th location. […] Data were analyzed with pen as the experimental unit and cow as the observational unit. Dietary treatment and experimental week were considered fixed effects, whereas location, pen and cow were considered random effects. An auto-regressive covariance structure [AR(1)] was used to analyze repeated measurements (week of experimental period) with cow nested in pen within treatment as the subject. For pen level observations (DMI, production efficiency and NEL measurements), the main effect of cattle was dropped from the statistical model above. Further, pen was used as the subject of the auto-regressive repeated analysis. Degrees of freedom were adjusted using the Kenward-Roger option and multiple treatment […] comparisons were adjusted by the Tukey method. Non-parametric analysis of BCS measurements, via PROC NPAR1WAY, was performed to evaluate differences in dietary treatments at both the initiation of the experiment and during the final week of the experiments. Statistical significance was reported as P≤0.05 and tendencies as 0.05<P≤0.10. […] This analysis, deemed the 'post-acclimation' analysis, removed the first three experimental weeks of data from the experimental dataset, leaving only the fourth to ninth weeks for statistical interpretation. The statistical model was identical to the previously described approach and all data, except for body weight and NEL (due to missing data), were reanalyzed for interpretation.

[1] = 11 g/ton, experimental weeks 4 through 9
[2] = 11 g/ton, sample day, entire experiment
[3] = 11 g/ton, sample day, weeks 4 through 9
[4] = 11 g/ton, weekly averaged, entire experiment
[5] = 11 g/ton, weekly averaged, weeks 4 through 9
[6] = 14.5 g/ton, experimental weeks 4 through 9
[7] = 14.5 g/ton, sample day, entire experiment
[8] = 14.5 g/ton, sample day, weeks 4 through 9
[9] = 14.5 g/ton, weekly averaged, entire experiment
[10] = 14.5 g/ton, weekly averaged, weeks 4 through 9
[11] = 18 g/ton, experimental weeks 4 through 9
[12] = 18 g/ton, sample day, entire experiment
[13] = 18 g/ton, sample day, weeks 4 through 9
[14] = 18 g/ton, weekly averaged, entire experiment
[15] = 18 g/ton, weekly averaged, weeks 4 through 9

SMILES: CC[C@@]1([C@@H]2O[C@@H]([C@H]3O[C@@](O)(CO)[C@H](C)C[C@@H]3C)C[C@@H]2C)CC[C@H]([C@]2(C)CC[C@]3(C[C@H](O)[C@@H](C)[C@@H]([C@@H](C)[C@@H](OC)[C@H](C)C(=O)O)O3)O2)O1 [monensin]
- DMI (11 g/ton, entire experiment): 59.7
- MUN (11 g/ton, entire experiment): 11.0^b mg/dL
- Milk Fat, % (11 g/ton, entire experiment): 4.45%
- Milk Fatty Acid: De novo (11 g/ton, entire experiment): 1.08^b g/100 g
- Milk Fatty Acid: Mixed (11 g/ton, entire experiment): 1.79 g/100 g
- Milk Fatty Acid: Performed (11 g/ton, entire experiment): 1.32 g/100 g
- Milk Fatty Acid: Total FA (11 g/ton, entire experiment): 4.20 g/100 g
- Milk Lactose, % (11 g/ton, entire experiment): 4.66%
- Milk Protein, % (11 g/ton, entire experiment): 3.29%
- DMI [1]: 59.5
- MUN [1]: 11.1^by mg/dL
- Milk Fat, % [1]: 4.46%
- Milk Fatty Acid: Mixed [1]: 1.79^ab g/100 g
- Milk Fatty Acid: Performed [1]: 1.33 g/100 g
- Milk Fatty Acid: Total FA [1]: 4.21 g/100 g
- Milk Lactose, % [1]: 4.65%
- Milk Protein, % [1]: 3.33%
- NEL (11 g/ton, sample day milk yield, entire experiment): 1.53
- Day of Sample Milk Yield [2]: 92.0 lb
- ECM [2]: 100.8^a lb
- ECM:Feed [2]: 1.72^a
- FCM [2]: 95.3^a lb
- FCM:Feed [2]: 1.63^a
- Fat yield [2]: 4.05^xy lb
- Lactose yield [2]: 4.30 lb
- Milk:Feed [2]: 1.56^xy
- Protein yield [2]: 3.02 lb
- SCM [2]: 95.2^xy lb
- SCM:Feed [2]: 1.59^ab
- Day of Sample Milk Yield [3]: 90.6 lb
- ECM [3]: 102.0^ab lb
- ECM:Feed [3]: 1.71^abx
- FCM [3]: 96.2^ab lb
- FCM:Feed [3]: 1.61^b
- Fat yield [3]: 3.98^ab lb
- Lactose yield [3]: 4.23 lb
- Milk:Feed [3]: 1.54^xy
- Protein yield [3]: 3.01 lb
- SCM [3]: 93.9^ab lb
- SCM:Feed [3]: 1.57^abx
- NEL (11 g/ton, weekly averaged milk yield, entire experiment): 1.53
- ECM [4]: 102.8 lb
- ECM:Feed [4]: 1.73^aby
- FCM [4]: 97.2 lb
- FCM:Feed [4]: 1.64^b
- Fat yield [4]: 4.03 lb
- Lactose yield [4]: 4.27 lb
- Milk Yield [4]: 91.5 lb
- Milk:Feed [4]: 1.57
- Protein yield [4]: 3.00 lb
- SCM [4]: 94.7^xy lb
- SCM:Feed [4]: 1.59^by
- ECM [5]: 101.6^y lb
- ECM:Feed [5]: 1.72^b
- FCM [5]: 95.9^y lb
- FCM:Feed [5]: 1.62^b
- Fat yield [5]: 3.97^ab lb
- Lactose yield [5]: 4.19 lb
- Milk Yield [5]: 90.4 lb
- Milk:Feed [5]: 1.55
- Protein yield [5]: 2.99 lb
- SCM [5]: 93.5^aby lb
- SCM:Feed [5]: 1.58^b
- DMI (14.5 g/ton, entire experiment): 59.2
- Milk Fat, % (14.5 g/ton, entire experiment): 4.47%
- Milk Fatty Acid: De novo (14.5 g/ton, entire experiment): 1.08^b g/100 g
- Milk Fatty Acid: Mixed (14.5 g/ton, entire experiment): 1.80 g/100 g
- Milk Fatty Acid: Performed (14.5 g/ton, entire experiment): 1.31 g/100 g
- Milk Fatty Acid: Total FA (14.5 g/ton, entire experiment): 4.20 g/100 g
- Milk Lactose, % (14.5 g/ton, entire experiment): 4.67%
- Milk Protein, % (14.5 g/ton, entire experiment): 3.30%
- DMI [6]: 59.5
- MUN [6]: 11.0^b mg/dL
- Milk Fat, % [6]: 4.50%
- Milk Fatty Acid: Mixed [6]: 1.82^b g/100 g
- Milk Fatty Acid: Performed [6]: 1.32 g/100 g
- Milk Fatty Acid: Total FA [6]: 4.23 g/100 g
- Milk Lactose, % [6]: 4.66%
- Milk Protein, % [6]: 3.33%
- NEL (14.5 g/ton, sample day milk yield, entire experiment): 1.55
- Day of Sample Milk Yield [7]: 92.6 lb
- ECM [7]: 104.1^b lb
- ECM:Feed [7]: 1.77^b
- FCM [7]: 98.6^b lb
- FCM:Feed [7]: 1.68^b
- Fat yield [7]: 4.09^y lb
- Lactose yield [7]: 4.34 lb
- Milk:Feed [7]: 1.61^y
- Protein yield [7]: 3.03 lb
- SCM [7]: 96.0^y lb
- SCM:Feed [7]: 1.64^b
- Day of Sample Milk Yield [8]: 91.3 lb
- ECM [8]: 103.3^b lb
- ECM:Feed [8]: 1.75^by
- FCM [8]: 97.6^b lb
- FCM:Feed [8]: 1.66^c
- Fat yield [8]: 4.06^b lb
- Lactose yield [8]: 4.27 lb
- Milk:Feed [8]: 1.57^y
- Protein yield [8]: 3.02 lb
- SCM [8]: 95.2^b lb
- SCM:Feed [8]: 1.62^by
- NEL (14.5 g/ton, weekly averaged milk yield, entire experiment): 1.54
- ECM [9]: 102.4 lb
- ECM:Feed [9]: 1.74^b
- FCM [9]: 96.9 lb
- FCM:Feed [9]: 1.65^b
- Fat yield [9]: 4.03 lb
- Lactose yield [9]: 4.26 lb
- Milk Yield [9]: 91.0 lb
- Milk:Feed [9]: 1.57
- Protein yield [9]: 2.98 lb
- SCM [9]: 94.5^y lb
- SCM:Feed [9]: 1.61^b
- ECM [10]: 101.7^y lb
- ECM:Feed [10]: 1.72^b
- FCM [10]: 96.1^y lb
- FCM:Feed [10]: 1.63^b
- Fat yield [10]: 4.00^b lb
- Lactose yield [10]: 4.19 lb
- Milk Yield [10]: 89.8 lb
- Milk:Feed [10]: 1.54
- Protein yield [10]: 2.97 lb
- SCM [10]: 93.7^b lb
- SCM:Feed [10]: 1.58^b
- Sample day milk yield difference from the control treatment (18 g/ton treatment, post-acclimation data): 1.5 pounds
- DMI (18 g/ton, entire experiment): 59.7
- MUN (18 g/ton, entire experiment): 10.4^ab mg/dL
- Milk Fat, % (18 g/ton, entire experiment): 4.42%
- Milk Fatty Acid: De novo (18 g/ton, entire experiment): 1.06^ab g/100 g
- Milk Fatty Acid: Mixed (18 g/ton, entire experiment): 1.77 g/100 g
- Milk Fatty Acid: Performed (18 g/ton, entire experiment): 1.30 g/100 g
- Milk Fatty Acid: Total FA (18 g/ton, entire experiment): 4.13 g/100 g
- Milk Lactose, % (18 g/ton, entire experiment): 4.66%
- Milk Protein, % (18 g/ton, entire experiment): 3.29%
- DMI [11]: 60.2
- MUN [11]: 10.4^abx mg/dL
- Milk Fat, % [11]: 4.43%
- Milk Fatty Acid: De novo [11]: 1.07^ab g/100 g
- Milk Fatty Acid: Mixed [11]: 1.78^ab g/100 g
- Milk Fatty Acid: Performed [11]: 1.32 g/100 g
- Milk Fatty Acid: Total FA [11]: 4.16 g/100 g
- Milk Lactose, % [11]: 4.66%
- Milk Protein, % [11]: 3.32%
- NEL (18 g/ton, sample day milk yield, entire experiment): 2.39
- Day of Sample Milk Yield [12]: 91.6 lb
- ECM [12]: 102.2^ab lb
- ECM:Feed [12]: 1.71^a
- FCM [12]: 96.7^ab lb
- FCM:Feed [12]: 1.61^a
- Fat yield [12]: 3.99^xy lb
- Lactose yield [12]: 4.27 lb
- Milk:Feed [12]: 1.55^x
- Protein yield [12]: 2.98 lb
- SCM [12]: 94.1^xy lb
- SCM:Feed [12]: .157^a
- Day of Sample Milk Yield [13]: 90.6 lb
- ECM [13]: 101.4^ab lb
- ECM:Feed [13]: 1.67^a
- FCM [13]: 95.8^ab lb
- FCM:Feed [13]: 1.58^ab
- Fat yield [13]: 3.96^ab lb
- Lactose yield [13]: 4.22 lb
- Milk:Feed [13]: 1.51^x
- Protein yield [13]: 2.97 lb
- SCM [13]: 93.4^ab lb
- SCM:Feed [13]: 1.54^a
- NEL (18 g/ton, weekly averaged milk yield, entire experiment): 2.38
- ECM [14]: 100.9 lb
- ECM:Feed [14]: 1.69^ax
- FCM [14]: 95.5 lb
- FCM:Feed [14]: 1.60^a
- Fat yield [14]: 3.95 lb
- Lactose yield [14]: 4.22 lb
- Milk Yield [14]: 90.4 lb
- Milk:Feed [14]: 1.53
- Protein yield [14]: 2.95 lb
- SCM [14]: 93.1^x lb
- SCM:Feed [14]: 1.56^a
- ECM [15]: 100.2^xy lb
- ECM:Feed [15]: 1.66^a
- FCM [15]: 94.6^xy lb
- FCM:Feed [15]: 1.56^a
- Fat yield [15]: 3.91^ab lb
- Lactose yield [15]: 4.16 lb
- Milk Yield [15]: 89.4 lb
- Milk:Feed [15]: 1.50
- Protein yield [15]: 2.94 lb
- SCM [15]: 92.3^ab lb
- SCM:Feed [15]: 1.53^a
- Milk protein percentage (entire study): 3.29%
- Milk protein percentage (post-acclimation period): 3.32%
